Source: US10806761B2, “Oncolytic HSV1 vector and methods of use” (THE BRIGHAM AND WOMEN'S HOSPITAL, INC., priority 2015, dated 2020)

Test system: gliomas
Settings: single dose administered two days before rQNestin34.5v.2
From the text: Mammals are able to rapidly counteract HSV1 in the brain through their initial immune responses.

O=P1(N(CCCl)CCCl)NCCCO1 (centres unmarked) [cyclophosphamide]
effect on viral biodistribution, replication and efficacy: significantly enhances viral biodistribution, replication and efficacy
reduction of the dose of virus required to produce a survival effect: two orders of magnitude
